Laboratory results taken from ChEMBL document CHEMBL4342505, “Achieving In Vivo Target Depletion through the Discovery and Optimization of Benzimidazolone BCL6 Degraders” (J Med Chem, 2020).
Converted amounts (≈) assume the structure as drawn.

What was measured:
[1] = Kinetic solubility in HEPES buffer containing 5% DMSO at pH 8 incubated for 20 hrs by NMR analysis; assay type: physicochemical; settings: read-out: Kinetic_solubility
[2] = molecular target: T1, B-cell lymphoma 6 protein (Homo sapiens, UniProt P41182)
Description: Inhibition of recombinant His-tagged human BCL6 expressed in Escherichia coli BL21 AI cell incubated for 2 hrs by TR-FRET assay

BCL-6/NCOR2 = BCL-6/NCOR2 (Homo sapiens, UniProt P41182)
Description: Inhibition of recombinant human Nanoluc-tagged BCL6/Halo-tagged SMRT transfected in human HEK293T cells assessed as reduction in BCL6/SMRT interaction incubated for 6 hrs by NANOBRET assay

[3] = molecular target: T1, B-cell lymphoma 6 protein; remark: listed apart in the source
Description: Induction of BCL6 degradation in human SUDHL-4 cells incubated for 2 hrs by immunofluorescence analysis

[4] = Metabolic stability in CD-1 mouse liver microsomes assessed as intrinsic clearance at 1 uM measured upt0 30 mins by LC-MS/MS analysis; assay type: ADME, Microsome; settings: 0.5 h
[5] = Lipophilicity, log D of compound at pH 7.4; assay type: physicochemical; settings: buffer
[6] = Kinetic solubility in PBS buffer containing 1% DMSO at pH 7.4 incubated for 2 hrs by HPLC analysis; assay type: physicochemical; settings: read-out: Kinetic_solubility
[7] = Permeability of compound by PAMPA assay; assay type: ADME
[8] = molecular target: T1, B-cell lymphoma 6 protein; test: Induction of BCL6 degradation in human SUDHL-4 cells incubated for 4 hrs by Western blot analysis; assay type: cell-based
[9] = molecular target: T1, B-cell lymphoma 6 protein; test: Induction of BCL6 degradation in human OCI-LY1 cells incubated for 4 hrs by Western blot analysis; assay type: cell-based
SUD4 = test: Antiproliferative activity agianst human SUDHL4 cells assessed as growth inhibition incubated for 14 days by CellTiter Glo reagent based assay; assay type: functional; settings: SU-DHL-4, […]
OCI-Ly1 = test: Antiproliferative activity agianst human OCI-LY1 cells assessed as growth inhibition incubated for 14 days by CellTiter Glo reagent based assay
OCI-Ly3 = test: Antiproliferative activity agianst human OCI-LY3 cells assessed as growth inhibition incubated for 14 days by CellTiter Glo reagent based assay

Structure (SMILES) | solubility kinetic at 20 h [1] [µM] | IC50 [2] [nM] | DC50 [3] [nM] | further results
Cn1ccnc1-c1ncc(Cl)c(Nc2ccc3c(c2)n(CCC(C)(C)O)c(=O)n3C)n1 | 113 (≈ 49.9 µg/mL) | 480 | > 10000 | IC50 (BCL-6/NCOR2): 4600 nM
Cc1nc(C)c(-c2ncc(Cl)c(Nc3ccc4c(c3)n(CCC(C)(C)O)c(=O)n4C)n2)s1 | < 30 | 1400 | > 10000 | –
Cc1ccn(-c2ncc(Cl)c(Nc3ccc4c(c3)n(CCC(C)(C)O)c(=O)n4C)n2)n1 | 253 (≈ 112 µg/mL) | 400 | > 10000 | IC50 (BCL-6/NCOR2): 2500 nM
Cn1c(=O)n(CCC(C)(C)O)c2cc(Nc3nc(N4CCCCC4)ncc3Cl)ccc21 | 70 (≈ 31.1 µg/mL) | 1000 | – | –
Cn1c(=O)n(CCC(C)(C)O)c2cc(Nc3nc(N4CCCC(C(F)(F)F)C4)ncc3Cl)ccc21 (stereo unspecified) | < 30 | 400 | 750 | CLH [4]: 630 µL/min/mg; logD [5]: 4.2
C[C@@H]1C[C@H](C)CN(c2ncc(Cl)c(Nc3ccc4c(c3)n(CCC(C)(C)O)c(=O)n4C)n2)C1 | < 30 | – | – | solubility kinetic at 2 h [6]: 6 µM (≈ 2.84 µg/mL); permeability [7]: 36 ×10⁻⁶ cm/s; Activity [8]: Dose-dependent effect; Activity [9]: Dose-dependent effect; CLH [4]: 2440 µL/min/mg; GI50 (SUD4): 350 nM; GI50 (OCI-Ly1): 280 nM; GI50 (OCI-Ly3): 3100 nM; logD [5]: 4.7
Cc1ccnn1-c1ncc(Cl)c(Nc2ccc3c(c2)n(CCC(C)(C)O)c(=O)n3C)n1 | 420 (≈ 186 µg/mL) | 430 | > 10000 | IC50 (BCL-6/NCOR2): 2700 nM
Cn1c(=O)n(C)c2cc(Nc3cc(SCc4ccccc4)ncn3)ccc21 | < 30 | – | – | –
Cn1c(=O)n(CCC(C)(C)O)c2cc(Nc3ccnc(Cl)c3C#N)ccc21 | < 30 | – | – | solubility kinetic at 2 h [6]: 25 µM (≈ 9.65 µg/mL)
Cn1c(=O)n(CCC(C)(C)O)c2cc(Nc3ccnc(Cl)c3Cl)ccc21 | 251 (≈ 99.2 µg/mL) | 1400 | – | –
CN(C)c1ncc(Cl)c(Nc2ccc3c(c2)n(CCC(C)(C)O)c(=O)n3C)n1 | 223 (≈ 90.3 µg/mL) | 1200 | – | –
CC[C@H](O)Cn1c(=O)n(C)c2ccc(Nc3ccnc(Cl)c3C#N)cc21 | 313 (≈ 116 µg/mL) | 4600 | – | –
Cn1c(=O)n(C)c2cc(Nc3ccnc(Cl)c3C#N)ccc21 | < 30 | – | – | solubility kinetic at 2 h [6]: 16 µM (≈ 5.02 µg/mL)
N#Cc1c(NCC2CC2)ccnc1Cl | 300 (≈ 62.3 µg/mL) | – | – | –
Cn1c(=O)n(CCC(C)(C)O)c2cc(Nc3ccncc3Cl)ccc21 | 526 (≈ 190 µg/mL) | 990 | – | –
COCC1CN(c2ncc(Cl)c(Nc3ccc4c(c3)n(CCC(C)(C)O)c(=O)n4C)n2)CCC1(F)F (stereo unspecified) | 72 (≈ 37.8 µg/mL) | – | 440 | CLH [4]: > 1000 µL/min/mg; logD [5]: 3.5
Cn1c(=O)n(CCC(C)(C)O)c2cc(Nc3nc(N4CCC(F)(F)C(CO)C4)ncc3Cl)ccc21 (stereo unspecified) | 294 (≈ 150 µg/mL) | – | – | GI50 (SUD4): 410 nM; GI50 (OCI-Ly1): 500 nM; GI50 (OCI-Ly3): 2900 nM; logD [5]: 2.5
Cn1c(=O)n(CCC(C)(C)O)c2cc(Nc3nc(N4CCCC(C#N)C4)ncc3Cl)ccc21 (stereo unspecified) | 330 (≈ 155 µg/mL) | 390 | > 10000 | –
C[C@@H]1CN(c2ncc(Cl)c(Nc3ccc4c(c3)n(CCC(C)(C)O)c(=O)n4C)n2)C[C@H](C)O1 | < 30 | 150 | > 10000 | solubility kinetic at 2 h [6]: 95 µM (≈ 45.1 µg/mL); CLH [4]: 104 µL/min/mg; IC50 (BCL-6/NCOR2): 1760 nM
C[C@@H]1CN(c2ncc(Cl)c(Nc3ccc4c(c3)n(CCC(C)(C)O)c(=O)n4C)n2)C[C@H](C)N1C | 343 (≈ 167 µg/mL) | 190 | > 10000 | IC50 (BCL-6/NCOR2): 1550 nM
CCCCn1c(=O)n(C)c2ccc(Nc3ccnc(Cl)c3C#N)cc21 | 53 (≈ 18.9 µg/mL) | 6600 | – | –
N#Cc1c(NCc2ccccc2)ccnc1Cl | 60 (≈ 14.6 µg/mL) | – | – | –

Structure (SMILES) | solubility kinetic at 20 h [1] [µM] | IC50 [2] [nM] | DC50 [3] [nM] | further results
Cc1cc(C)n(-c2ncc(Cl)c(Nc3ccc4c(c3)n(CCC(C)(C)O)c(=O)n4C)n2)n1 | 404 (≈ 184 µg/mL) | 260 | > 10000 | IC50 (BCL-6/NCOR2): 1800 nM
Cn1c(=O)n(CCC(C)(C)O)c2cc(Nc3c(Cl)cncc3Cl)ccc21 | 126 (≈ 49.8 µg/mL) | 37000 | – | –
C[C@H](O)CCn1c(=O)n(C)c2ccc(Nc3ccnc(Cl)c3C#N)cc21 | 251 (≈ 93.3 µg/mL) | – | – | –
Cn1c(=O)n(CCC(C)(C)O)c2cc(Nc3nc(N4CCOCC4)ncc3Cl)ccc21 | 370 (≈ 165 µg/mL) | 270 | – | IC50 (BCL-6/NCOR2): 2300 nM
C[C@@H](O)CCn1c(=O)n(C)c2ccc(Nc3ccnc(Cl)c3C#N)cc21 | 308 (≈ 115 µg/mL) | – | – | –
C[C@@H]1CN(c2cc(Nc3ccc4c(c3)n(CCC(C)(C)O)c(=O)n4C)c(Cl)cn2)C[C@H](C)O1 | 83 (≈ 39.3 µg/mL) | 930 | – | IC50 (BCL-6/NCOR2): 5000 nM
C[C@@H]1C[C@H](C)CN(c2cc(Nc3ccc4c(c3)n(CCC(C)(C)O)c(=O)n4C)c(Cl)cn2)C1 | 12 (≈ 5.66 µg/mL) | 3500 | 1800 | –
Cn1c(=O)n(CCC(C)(C)O)c2cc(Nc3nc(N4CCCC(CO)C4)ncc3Cl)ccc21 (stereo unspecified) | 442 (≈ 210 µg/mL) | 130 | 450 | CLH [4]: 370 µL/min/mg; logD [5]: 2.1
CC1CCCN(c2ncc(Cl)c(Nc3ccc4c(c3)n(CCC(C)(C)O)c(=O)n4C)n2)C1 (stereo unspecified) | 44 (≈ 20.2 µg/mL) | 640 | 520 | CLH [4]: 2210 µL/min/mg; logD [5]: 4.2; IC50 (BCL-6/NCOR2): 13000 nM
Cc1cc(C)n(-c2cc(Nc3ccc4c(c3)n(CCC(C)(C)O)c(=O)n4C)c(Cl)cn2)n1 | 135 (≈ 61.4 µg/mL) | 790 | > 10000 | IC50 (BCL-6/NCOR2): 4600 nM
Cn1c(=O)n(C)c2cc(Nc3ncccc3C#N)ccc21 | 300 (≈ 83.8 µg/mL) | – | – | –
Cn1c(=O)n(CCC(C)(C)O)c2cc(Nc3ncnc(Cl)c3Cl)ccc21 | 344 (≈ 136 µg/mL) | 2100 | – | –
Cn1c(=O)n(CCC(C)(C)O)c2cc(Nc3nc(N4C5CCC4CC(F)(F)C5)ncc3Cl)ccc21 | < 30 | – | – | –
CC[C@@H](O)Cn1c(=O)n(C)c2ccc(Nc3ccnc(Cl)c3C#N)cc21 | 307 (≈ 114 µg/mL) | 4500 | – | –
CCC(O)Cn1c(=O)n(C)c2ccc(Nc3ccnc(Cl)c3C#N)cc21 (racemic) | 298 (≈ 111 µg/mL) | 5400 | – | –
Cn1c(=O)n(CCC(C)(C)O)c2cc(Nc3nc(-n4cccn4)ncc3Cl)ccc21 | 146 (≈ 62.5 µg/mL) | 710 | > 10000 | IC50 (BCL-6/NCOR2): 5900 nM
Cn1c(=O)n(CCC(C)(C)O)c2cc(Nc3nc(N4CC5CCC(C4)C5(F)F)ncc3Cl)ccc21 | 22 (≈ 11.2 µg/mL) | 710 | > 10000 | –
Cn1c(=O)n(CCC(C)(C)O)c2cc(Nc3nc(N4CCC(C(F)(F)F)CC4)ncc3Cl)ccc21 | 22 (≈ 11.3 µg/mL) | 960 | > 10000 | –
Cn1c(=O)n(CCC(C)(C)O)c2cc(Nc3nc(Cl)ncc3Cl)ccc21 | 361 (≈ 143 µg/mL) | – | – | –
CSc1ncc(Cl)c(Nc2ccc3c(c2)n(CCC(C)(C)O)c(=O)n3C)n1 | 337 (≈ 137 µg/mL) | 680 | – | –
CCC(C#N)Cn1c(=O)n(C)c2ccc(Nc3ccnc(Cl)c3C#N)cc21 (stereo unspecified) | < 30 | – | – | solubility kinetic at 2 h [6]: 9.2 µM (≈ 3.5 µg/mL)
CC1CN(c2ncc(Cl)c(Nc3ccc4c(c3)n(CCC(C)(C)O)c(=O)n4C)n2)CCC1(F)F (stereo unspecified) | 24 (≈ 11.9 µg/mL) | 330 | 180 | CLH [4]: 66 µL/min/mg; logD [5]: 3.9
